The values below come from the supplement of paper PMC11851430, “Workflow for E3 Ligase Ligand Validation for PROTAC Development” (ACS Chemical Biology, 2025).

Structures are written as SMILES.

Some targets named below: ACVR1 (UniProt Q04771); AURKB (UniProt Q96GD4); CDC42BPA (UniProt Q5VT25); CDK1 (UniProt P06493); CSK (UniProt P41240); FGFR1 (UniProt P11362); ITK (UniProt Q08881); LATS1 (UniProt O95835); MAP3K11 (UniProt Q16584); MAP3K4 (UniProt Q9Y6R4); NEK9 (UniProt Q8TD19); PAK4 (UniProt O96013); PHKG2 (UniProt P15735); PKN1 (UniProt Q16512); PRKAA1 (UniProt Q13131); PRKCA (UniProt P17252); PRKD3 (UniProt O94806); ROCK1 (UniProt Q13464); SRC (UniProt P12931); TAOK2 (UniProt Q9UL54); TAOK3 (UniProt Q9H2K8); TGFBR1 (UniProt P36897).

What all share (assay): apparent dissociation constant Kd app (Kinobeads competition, EC50 x correction factor)
Holding throughout (details): lysate: Jurkat cell lysate

Sequence of FGFR1 (P11362 whole entry, looked up): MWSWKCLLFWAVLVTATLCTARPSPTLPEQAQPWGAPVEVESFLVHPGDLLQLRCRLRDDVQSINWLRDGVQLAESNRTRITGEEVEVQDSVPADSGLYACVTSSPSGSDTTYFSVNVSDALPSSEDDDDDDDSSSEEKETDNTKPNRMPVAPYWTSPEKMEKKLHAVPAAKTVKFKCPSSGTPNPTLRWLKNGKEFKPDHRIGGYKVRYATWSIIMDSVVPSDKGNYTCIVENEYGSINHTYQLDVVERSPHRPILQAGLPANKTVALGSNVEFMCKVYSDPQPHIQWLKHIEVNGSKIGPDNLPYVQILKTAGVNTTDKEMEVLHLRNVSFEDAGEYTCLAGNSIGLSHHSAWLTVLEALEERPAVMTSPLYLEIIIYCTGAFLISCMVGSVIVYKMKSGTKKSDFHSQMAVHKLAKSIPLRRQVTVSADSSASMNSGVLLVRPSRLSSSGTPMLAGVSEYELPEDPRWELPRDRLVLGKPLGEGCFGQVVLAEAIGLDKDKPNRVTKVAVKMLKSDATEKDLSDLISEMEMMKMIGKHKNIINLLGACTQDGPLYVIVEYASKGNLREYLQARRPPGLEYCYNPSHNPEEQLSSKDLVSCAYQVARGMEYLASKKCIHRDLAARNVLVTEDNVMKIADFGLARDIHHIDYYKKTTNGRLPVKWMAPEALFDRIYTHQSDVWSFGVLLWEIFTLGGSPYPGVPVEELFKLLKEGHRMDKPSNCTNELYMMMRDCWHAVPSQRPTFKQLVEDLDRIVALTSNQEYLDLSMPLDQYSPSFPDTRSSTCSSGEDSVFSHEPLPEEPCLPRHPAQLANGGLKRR
Sequence of CSK (P41240 whole entry, looked up): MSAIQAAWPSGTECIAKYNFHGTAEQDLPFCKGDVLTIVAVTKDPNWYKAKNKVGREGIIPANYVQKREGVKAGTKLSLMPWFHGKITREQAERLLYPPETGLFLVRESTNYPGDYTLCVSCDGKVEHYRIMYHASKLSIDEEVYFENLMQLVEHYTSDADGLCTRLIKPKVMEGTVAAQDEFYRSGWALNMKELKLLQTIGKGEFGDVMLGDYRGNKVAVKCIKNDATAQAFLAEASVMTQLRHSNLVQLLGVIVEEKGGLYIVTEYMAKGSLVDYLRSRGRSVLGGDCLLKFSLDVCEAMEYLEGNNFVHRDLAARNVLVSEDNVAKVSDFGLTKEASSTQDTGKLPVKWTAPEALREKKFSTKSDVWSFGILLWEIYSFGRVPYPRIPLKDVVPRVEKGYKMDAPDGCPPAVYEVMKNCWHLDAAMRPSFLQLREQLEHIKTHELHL
Sequence of LATS1 (O95835 whole entry): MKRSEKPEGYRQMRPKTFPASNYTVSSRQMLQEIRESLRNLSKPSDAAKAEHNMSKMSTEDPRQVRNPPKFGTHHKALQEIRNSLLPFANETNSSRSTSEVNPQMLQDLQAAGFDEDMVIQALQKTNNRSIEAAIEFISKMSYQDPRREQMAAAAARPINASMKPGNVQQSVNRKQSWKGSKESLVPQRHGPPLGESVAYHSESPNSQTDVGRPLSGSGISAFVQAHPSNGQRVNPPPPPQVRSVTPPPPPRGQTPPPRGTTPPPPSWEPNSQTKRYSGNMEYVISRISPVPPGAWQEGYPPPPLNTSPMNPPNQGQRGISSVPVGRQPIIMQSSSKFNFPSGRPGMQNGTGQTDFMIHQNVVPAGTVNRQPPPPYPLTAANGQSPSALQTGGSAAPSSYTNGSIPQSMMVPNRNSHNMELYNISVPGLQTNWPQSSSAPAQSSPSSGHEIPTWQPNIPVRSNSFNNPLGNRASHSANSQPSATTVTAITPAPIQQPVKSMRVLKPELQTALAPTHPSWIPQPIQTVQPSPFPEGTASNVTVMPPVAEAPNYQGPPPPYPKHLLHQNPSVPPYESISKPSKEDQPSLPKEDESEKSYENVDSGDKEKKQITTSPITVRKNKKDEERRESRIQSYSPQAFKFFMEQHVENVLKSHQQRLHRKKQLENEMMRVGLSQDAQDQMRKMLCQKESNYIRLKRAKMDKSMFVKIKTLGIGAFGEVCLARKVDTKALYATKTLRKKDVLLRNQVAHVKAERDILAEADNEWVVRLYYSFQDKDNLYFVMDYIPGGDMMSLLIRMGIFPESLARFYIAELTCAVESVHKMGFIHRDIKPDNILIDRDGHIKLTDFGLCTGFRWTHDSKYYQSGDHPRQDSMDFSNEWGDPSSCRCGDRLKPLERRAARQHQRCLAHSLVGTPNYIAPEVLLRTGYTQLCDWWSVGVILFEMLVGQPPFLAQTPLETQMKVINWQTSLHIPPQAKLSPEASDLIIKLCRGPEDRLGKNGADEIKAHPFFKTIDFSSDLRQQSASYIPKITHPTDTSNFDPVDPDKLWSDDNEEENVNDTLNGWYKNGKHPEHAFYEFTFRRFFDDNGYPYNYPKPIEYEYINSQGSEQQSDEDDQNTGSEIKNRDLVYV
Sequence of TAOK2 (Q9UL54 whole entry): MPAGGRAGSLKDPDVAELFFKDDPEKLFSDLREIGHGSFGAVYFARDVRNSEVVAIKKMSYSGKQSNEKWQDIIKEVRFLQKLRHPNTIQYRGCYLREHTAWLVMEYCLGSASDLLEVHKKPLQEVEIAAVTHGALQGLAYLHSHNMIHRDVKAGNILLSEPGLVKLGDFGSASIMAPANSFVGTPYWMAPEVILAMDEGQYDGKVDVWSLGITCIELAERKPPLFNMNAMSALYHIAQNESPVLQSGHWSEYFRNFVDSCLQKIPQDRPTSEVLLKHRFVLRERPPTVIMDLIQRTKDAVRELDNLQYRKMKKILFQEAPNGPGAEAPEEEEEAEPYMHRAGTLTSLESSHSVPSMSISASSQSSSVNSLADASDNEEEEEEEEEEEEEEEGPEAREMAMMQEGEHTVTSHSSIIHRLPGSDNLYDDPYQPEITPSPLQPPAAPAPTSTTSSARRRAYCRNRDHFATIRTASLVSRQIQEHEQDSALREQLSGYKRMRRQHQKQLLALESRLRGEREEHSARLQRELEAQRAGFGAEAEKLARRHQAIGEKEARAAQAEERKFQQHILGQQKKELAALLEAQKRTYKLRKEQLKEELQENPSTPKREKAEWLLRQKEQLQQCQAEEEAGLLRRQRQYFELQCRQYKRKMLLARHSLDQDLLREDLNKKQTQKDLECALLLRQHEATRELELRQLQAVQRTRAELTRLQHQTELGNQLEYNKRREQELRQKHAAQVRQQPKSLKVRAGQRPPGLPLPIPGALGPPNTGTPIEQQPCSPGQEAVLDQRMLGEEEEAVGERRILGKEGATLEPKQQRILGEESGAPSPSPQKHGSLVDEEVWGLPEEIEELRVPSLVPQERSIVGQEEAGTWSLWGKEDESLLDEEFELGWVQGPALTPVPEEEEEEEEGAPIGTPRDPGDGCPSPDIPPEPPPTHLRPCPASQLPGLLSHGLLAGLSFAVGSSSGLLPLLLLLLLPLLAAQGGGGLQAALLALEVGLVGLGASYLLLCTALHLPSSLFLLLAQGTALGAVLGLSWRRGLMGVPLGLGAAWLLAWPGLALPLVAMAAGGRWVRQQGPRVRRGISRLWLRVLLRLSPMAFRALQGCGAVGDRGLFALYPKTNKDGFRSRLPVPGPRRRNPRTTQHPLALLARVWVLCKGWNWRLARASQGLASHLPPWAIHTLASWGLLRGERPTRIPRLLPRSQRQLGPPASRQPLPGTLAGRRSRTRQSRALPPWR
Sequence of SRC (P12931 whole entry, looked up): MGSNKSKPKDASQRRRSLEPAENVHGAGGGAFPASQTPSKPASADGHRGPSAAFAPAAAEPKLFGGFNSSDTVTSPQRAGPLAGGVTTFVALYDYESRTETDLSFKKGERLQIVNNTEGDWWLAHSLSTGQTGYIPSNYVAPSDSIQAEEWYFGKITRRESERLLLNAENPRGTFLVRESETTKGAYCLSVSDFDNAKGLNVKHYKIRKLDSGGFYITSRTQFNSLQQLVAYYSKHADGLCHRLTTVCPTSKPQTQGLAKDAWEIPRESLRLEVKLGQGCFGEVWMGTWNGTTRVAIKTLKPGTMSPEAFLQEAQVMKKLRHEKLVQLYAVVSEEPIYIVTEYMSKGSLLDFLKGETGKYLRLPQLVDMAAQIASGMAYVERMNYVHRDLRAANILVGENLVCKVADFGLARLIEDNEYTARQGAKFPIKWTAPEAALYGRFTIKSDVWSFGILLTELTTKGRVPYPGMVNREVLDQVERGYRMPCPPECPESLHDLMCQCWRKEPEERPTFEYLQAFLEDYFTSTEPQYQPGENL
Sequence of PAK4 (O96013 whole entry, looked up): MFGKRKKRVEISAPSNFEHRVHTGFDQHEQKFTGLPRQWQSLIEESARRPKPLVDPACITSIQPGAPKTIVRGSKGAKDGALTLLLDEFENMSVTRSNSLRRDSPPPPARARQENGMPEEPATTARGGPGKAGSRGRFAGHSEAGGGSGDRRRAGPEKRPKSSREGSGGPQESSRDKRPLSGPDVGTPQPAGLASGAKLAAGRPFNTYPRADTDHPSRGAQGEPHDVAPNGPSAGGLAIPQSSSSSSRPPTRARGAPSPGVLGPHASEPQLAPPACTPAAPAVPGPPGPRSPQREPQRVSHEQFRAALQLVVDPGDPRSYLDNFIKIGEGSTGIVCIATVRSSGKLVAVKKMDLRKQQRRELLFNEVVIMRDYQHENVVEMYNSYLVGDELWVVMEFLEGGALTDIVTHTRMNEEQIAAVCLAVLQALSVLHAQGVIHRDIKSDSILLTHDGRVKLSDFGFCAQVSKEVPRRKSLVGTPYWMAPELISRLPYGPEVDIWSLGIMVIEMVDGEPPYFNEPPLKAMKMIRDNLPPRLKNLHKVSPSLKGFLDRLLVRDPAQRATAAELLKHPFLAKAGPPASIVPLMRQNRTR
Sequence of CDK1 (P06493 whole entry, looked up): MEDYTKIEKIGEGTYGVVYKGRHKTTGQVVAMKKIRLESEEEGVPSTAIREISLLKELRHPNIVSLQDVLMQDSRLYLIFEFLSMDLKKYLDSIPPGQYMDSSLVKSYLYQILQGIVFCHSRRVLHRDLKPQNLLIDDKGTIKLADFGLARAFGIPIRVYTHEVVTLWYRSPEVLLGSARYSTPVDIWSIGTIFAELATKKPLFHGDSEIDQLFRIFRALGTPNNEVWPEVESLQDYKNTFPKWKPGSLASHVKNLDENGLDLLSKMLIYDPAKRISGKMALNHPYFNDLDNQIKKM

For `NC(=O)c1ccccc1Nc1nc(Nc2ccc(N3CCNCC3)cc2)ncc1Cl`, the Kd on ACVR1 turned out to be 1270 nM; at AURKB it was 35.6 nM; on CDC42BPA, 1320 nM; at CDK1, 1910 nM; at CSK, 2170 nM; at FGFR1, 144 nM. Moreover, the Kd at ITK is 38.6 nM; on LATS1, 48.9 nM; at MAP3K11, 231 nM; at MAP3K4, 90 nM; at NEK9, 96.2 nM; on PAK4 it was 424 nM. The Kd is 1150 nM on PHKG2; 1520 nM on PKN1; 83 nM at PRKAA1; 966 nM at PRKCA; 255 nM on PRKD3; 2000 nM at ROCK1. The Kd at SRC was 808 nM; at TAOK2 it was 558 nM; at TAOK3, 878 nM; at TGFBR1, 1370 nM.
